The source made the active and inactive calls. No cut-off for these calls is given here.
Key:
PC-12 [1] = assay: Neuroprotective activity against NMDA-induced excitotoxicity in rat PC-12 cells assessed as increase in cell viability at 20 uM pretreated for 24 hr followed by NMDA addition and measured after 6 hrs by MTT assay; format: functional
PC-12 [2] = assay: Neuroprotective activity against NMDA-induced excitotoxicity in rat PC-12 cells assessed as increase in cell viability pretreated for 24 hr followed by NMDA addition and measured after 6 hrs by MTT assay; format: functional, cell-based; details: dose 2.5-20 µM, time 30.0 hrs, DDE = dose-dependent effect
PC-12 [3] = assay: Neuroprotective activity against NMDA-induced excitotoxicity in rat PC-12 cells assessed as increase in cell viability at 5 uM pretreated for 24 hr followed by NMDA addition and measured after 6 hrs by MTT assay; format: functional, cell-based; details: time 30.0 hrs
PC-12 [4] = assay: Neuroprotective activity against NMDA-induced excitotoxicity in rat PC-12 cells assessed as increase in cell viability at 15 uM pretreated for 24 hr followed by NMDA addition and measured after 6 hrs by MTT assay; format: functional; details: time 30 hrs
PC-12 [5] = assay: Neuroprotective effect against NMDA-induced rat PC-12 cells assessed as prevention of morphological changes at 15 uM; format: functional, cell-based
PC-12 [6] = assay: Inhibition of NMDA-induced Ca2+ influx in rat PC-12 cells assessed as reduction in intracellular Ca2+ concentration at 15 uM pretreated for 24 hr followed by NMDA addition and measured after 6 hrs by Fluo2-AM staining based fluorescence microscopic method; format: functional, cell-based; details: time 30.0 hrs

SMILES: O=C1C[C@@H](c2cccc(OCc3ccccc3)c2)[C@H]2Cc3c(F)cccc3N12 (racemic)
- Activity (PC-12 [1]; time 30 hrs): 94.59%
- Activity (PC-12 [2]): Dde
- Activity (PC-12 [3]): Active
- Activity (PC-12 [4]): 96.16%
- Activity (PC-12 [5]): Active
- inhibition (PC-12 [6]): Active

SMILES: COc1c(OCc2ccccc2)cccc1[C@@H]1CC(=O)N2c3ccccc3C[C@H]12 (racemic)
- Activity (PC-12 [1]; time 30.0 hrs): Active

SMILES: COc1cc(OC)cc([C@@H]2CC(=O)N3c4ccccc4C[C@H]23)c1 (racemic)
- Activity (PC-12 [1]; time 30.0 hrs): Active

SMILES: COc1ccc([C@@H]2CC(=O)N3c4ccccc4C[C@H]23)cc1 (racemic)
- Activity (PC-12 [1]; time 30.0 hrs): Active

SMILES: COc1ccccc1[C@@H]1CC(=O)N2c3ccccc3C[C@H]12 (racemic)
- Activity (PC-12 [1]; time 30.0 hrs): Active

SMILES: O=C1C[C@@H](c2cccc(OCc3ccccc3)c2)[C@H]2Cc3cc(OCc4ccccc4)ccc3N12 (racemic)
- Activity (PC-12 [1]; time 30.0 hrs): Active

SMILES: O=C1C[C@@H](c2cccc(OCc3ccccc3)c2)[C@H]2Cc3ccccc3N12 (racemic)
- Activity (PC-12 [1]; time 30.0 hrs): Active

SMILES: O=C1C[C@@H](c2ccccc2)[C@H]2Cc3ccccc3N12 (racemic)
- Activity (PC-12 [1]; time 30.0 hrs): Active

SMILES: O=C1C[C@H](c2cccc(OCc3ccccc3)c2)[C@H]2Cc3c(F)cccc3N12 (racemic)
- Activity (PC-12 [1]; time 30.0 hrs): Active

SMILES: O=C1C[C@H](c2cccc(OCc3ccccc3)c2)[C@H]2Cc3ccccc3N12 (racemic)
- Activity (PC-12 [1]; time 30.0 hrs): Active

SMILES: C[C@]12N[C@H](Cc3ccccc31)c1ccccc12.O=C(O)/C=C\C(=O)O [DIZOCILPINE MALEATE]
- Activity (PC-12 [1]; time 30 hrs): 95.48%
- Activity (PC-12 [2]): Dde
- Activity (PC-12 [3]): Active
- Activity (PC-12 [4]): 96.96%
- Activity (PC-12 [5]): Active
- inhibition (PC-12 [6]): Active

Reference: ChEMBL document CHEMBL5120765, “Synthesis of novel 1-phenyl-benzopyrrolizidin-3-one derivatives and evaluation of their cytoneuroprotective effects against NMDA-induced injury in PC12 cells” (Bioorg Med Chem, 2022)
